Results published in patent US9464044B2, “Compound having ability to inhibit 11Beta-HSD1 enzyme or pharmaceutically acceptable salt thereof, method for producing same, and pharmaceutical composition containing same as active ingredient” (AHN-GOOK PHARMACEUTICAL CO., LTD., priority 2012, dated 2016).

Assays:
11β-HSD1 = 11β-HSD1 (Homo sapiens (Human), UniProt P28845); experiment: 11β-HSD1 inhibiting activity, HTRF assay with human microsomal fractions; type: biochemical; conditions: 160 nM cortisone, 200 μM NADPH, 2 h at 37° C.
Chain of 11β-HSD1 (P28845 whole entry): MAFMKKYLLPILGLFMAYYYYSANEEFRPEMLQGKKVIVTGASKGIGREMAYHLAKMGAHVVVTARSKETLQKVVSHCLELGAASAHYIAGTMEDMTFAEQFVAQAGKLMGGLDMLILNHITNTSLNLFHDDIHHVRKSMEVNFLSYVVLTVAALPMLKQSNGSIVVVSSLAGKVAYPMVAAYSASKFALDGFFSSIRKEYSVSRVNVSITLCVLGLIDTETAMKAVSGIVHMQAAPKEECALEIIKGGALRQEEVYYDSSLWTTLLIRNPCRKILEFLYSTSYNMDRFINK
Experimental: The inhibiting activity of 11β-HSD1 derived from microsomal fractions was measured using the HTRF assay (62CO2PEB, Cisbio). […] Europium (Eu^3+) cryptate and XL665-conjugated cortisol were then added to each well and incubated for an additional 2 h at room temperature. The Cortisol concentration was calculated u sing a calibration curve. The IC50 values were calculated from dose response curves using GraphPad Prism software.

KKAy mice = experiment: In vivo study of the lowering effect on plasma glucose and plasma insulin in KKAy mouse model; conditions: for levels of plasma glucose and plasma insulin: either 100 mg/kg or 50 mg/kg; for Plasma glucose lowering effect / Plasma insulin lowering effect: oral, 3 weeks, after fasting

| IC50 (11β-HSD1) [nM] | SMILES | other results |
| --- | --- | --- |
|  | NC(=O)C12CC3CC(C1)C(NC(=O)C1(CNS(=O)(=O)c4ccccc4F)CC1)C(C3)C2 (centres unmarked) [Example 3, E-4-[1-((2-fluoro-benzenesulfonylamino)methyl)cyclopropanecarboxamido]-adamantan-1-carboxylic acid amide] | levels of plasma glucose and plasma insulin (KKAy mice): significantly reduced |
|  | NC(=O)C12CC3CC(C1)C(NC(=O)c1cccc(NS(=O)(=O)c4cc(Cl)cc(Cl)c4)c1)C(C3)C2 (centres unmarked) [Example 119, E-4-[3-(3,5-dichloro-benzenesulfonylamino)benzamido]-adamantan-1-carboxylic acid amide] | levels of plasma glucose and plasma insulin (KKAy mice): significantly reduced; Plasma glucose lowering effect (KKAy mice; 50 mg/kg): 47%; Plasma insulin lowering effect (KKAy mice; 50 mg/kg): 52% |
|  | CC(C)(NS(=O)(=O)c1c(F)cccc1F)C(=O)NC1C2CC3CC1CC(C(N)=O)(C3)C2 (centres unmarked) [Example 84, E-4-[2-(2,6-difluoro-benzenesulfonylamino)-2-methylpropanamido]adamantan-1-carboxylic acid amide] | levels of plasma glucose and plasma insulin (KKAy mice): significantly reduced; Plasma glucose lowering effect (KKAy mice; 50 mg/kg): 19%; Plasma insulin lowering effect (KKAy mice; 50 mg/kg): 43% |
| 608 | NC(=O)C12CC3CC(C1)C(NC(=O)C1(CNS(=O)(=O)c4cc(F)cc(F)c4)CC1)C(C3)C2 (centres unmarked) [Example 9, E-4-[1-((3,5-difluoro-benzenesulfonylamino)methyl)cyclopropanecarboxamido]-adamantan-1-carboxylic acid amide] |  |
| 7.8 | NC(=O)C12CC3CC(C1)C(NC(=O)c1cccc(NS(=O)(=O)c4ccc(F)cc4F)c1)C(C3)C2 (centres unmarked) [Example 121, E-4-[3-(2,4-difluoro-benzenesulfonylamino)-benzamido]-adamantan-1-carboxylic acid amide] |  |
| 14.5 | NC(=O)C12CC3CC(C1)C(NC(=O)c1cccc(NS(=O)(=O)c4ccc(Br)cc4Cl)c1)C(C3)C2 (centres unmarked) [Example 116, E-4-[3-(2-chloro-4-bromo-benzenesulfonylamino)-benzamido]-adamantan-1-carboxylic acid amide] |  |
| 30.8 | NC(=O)C12CC3CC(C1)C(NC(=O)C1(CNS(=O)(=O)c4ccc(F)c(F)c4)CC1)C(C3)C2 (centres unmarked) [Example 21, E-4-[1-((3,4-difluoro-benzenesulfonylamino)methyl)cyclopropanecarboxamido]-adamantan-1-carboxylic acid amide] |  |
| 97.8 | NC(=O)C12CC3CC(C1)C(NC(=O)C1(CNC(=O)N4CCc5ccccc5C4)CC1)C(C3)C2 (centres unmarked) [Example 140] |  |
| 132 | NC(=O)C12CC3CC(C1)C(NC(=O)C1(CNS(=O)(=O)c4ccco4)CC1)C(C3)C2 (centres unmarked) [Example 17, E-4-[1-((furan-2-sulfonylamino)methyl)cyclopropanecarboxamido]-adamantan-1-carboxylic acid amide] |  |
| 148 | NC(=O)C12CC3CC(C1)C(NC(=O)c1ccccc1NS(=O)(=O)c1ccccc1F)C(C3)C2 (centres unmarked) [Example 92, E-4-[2-(2-fluoro-benzenesulfonylamino)-benzamido]-adamantan-1-carboxylic acid amide] |  |
| 1.5 | O=C(O)CC[C@]12C[C@@H]3C[C@H](C1)[C@@H](NC(=O)C1(CNS(=O)(=O)c4ccccc4F)CC1)[C@@H](C3)C2 [Example 33, E-3-(4-(1((2-fluoro-benzenesulfonylamino)methyl)cyclopropanecarboxamido)adamantan-1-yl)propanoic acid] |  |
| 23.9 | NC(=O)C12CC3CC(C1)C(NC(=O)C1(CNS(=O)(=O)c4cc(Cl)cc(Cl)c4)CC1)C(C3)C2 (centres unmarked) [Example 18] |  |
| 102 | NC(=O)C12CC3CC(C1)C(NC(=O)C1(CNS(=O)(=O)c4ccc(F)cc4C(F)(F)F)CC1)C(C3)C2 (centres unmarked) [Example 20, E-4-[1-((2-(trifluoromethyl)-4-fluoro-benzenesulfonylamino)methyl)cyclopropanecarboxamido]-adamantan-1-carboxylic acid amide] |  |
| 52.5 | NC(=O)C12CC3CC(C1)C(NC(=O)C1(CNC(=O)N4CCCc5ccccc54)CC1)C(C3)C2 (centres unmarked) [Example 141, E-3,4-dihydro-2H-quinolin-1-carboxylic acid[1-(5-carbamoyl-adamantan-2-ylcarbamoyl)-cyclopropylmethyl]-amide] |  |
| 28.6 | CC(C)(CNS(=O)(=O)c1ccccc1)C(=O)NC1C2CC3CC1CC(C(N)=O)(C3)C2 (centres unmarked) [Example 69, E-4-[3-(benzenesulfonylamino)-2,2-dimethylpropanamido]adamantan-1-carboxylic acid amide] |  |
| 26.6 | O=C(NC1C2CC3CC1CC(O)(C3)C2)C1(CNS(=O)(=O)c2ccccc2F)CC1 (centres unmarked) [Example 2, 1-[(2-fluoro-benzenesulfonylamino)methyl]-N-(5-hydroxyadamantan-2-yl)cyclopropanecarboxamide] |  |
| 1.2 | CN(C(C)(C)C(=O)NC1C2CC3CC1CC(C(N)=O)(C3)C2)S(=O)(=O)c1ccccc1F (centres unmarked) [Example 72, E-4-[2-(2-fluoro-N-methyl-benzenesulfonylamino)-2-methylpropanamido]adamantan-1-carboxylic acid amide] |  |
| 1.2 | CN(CC1(C(=O)NC23CC4CC(CC(C4)C2)C3)CC1)S(=O)(=O)c1ccccc1F [Example 31, N-(adamantan-1-yl)-1-((2-fluoro-N-methylbenzenesulfonylamino)methyl)cyclopropanecarboxamido] |  |
| 62.8 | NC(=O)C12CC3CC(C1)C(NC(=O)C1(NS(=O)(=O)c4cccs4)CC1)C(C3)C2 (centres unmarked) [Example 48, E-4-[1-(thiophen-2-sulfonylamino)cyclopropanecarboxamido]-adamantan-1-carboxylic acid amide] |  |
| 15.3 | NC(=O)C12CC3CC(C1)C(NC(=O)c1cccc(NS(=O)(=O)c4ccccc4C(F)(F)F)c1)C(C3)C2 (centres unmarked) [Example 100] |  |
| 10 | Cc1c(Cl)cccc1S(=O)(=O)NC1(C(=O)NC2C3CC4CC2CC(C(N)=O)(C4)C3)CC1 (centres unmarked) [Example 41, E-4-[1-(3-chloro-2-methyl-benzenesulfonylamino)cyclopropanecarboxamido]-adamantan-1-carboxylic acid amide] |  |
| 28 | Cc1cc(S(=O)(=O)NCC2(C(=O)NC3C4CC5CC3CC(C(N)=O)(C5)C4)CC2)c(F)cc1Cl (centres unmarked) [Example 15, E-4-[1-((4-chloro-2-fluoro-5-methyl-benzenesulfonylamino)methyl)cyclopropanecarboxamido]-adamantan-1-carboxylic acid amide] |  |
|  | CN(CC1(C(=O)NC2C3CC4CC2CC(C(N)=O)(C4)C3)CC1)S(=O)(=O)c1ccccc1F (centres unmarked) [Example 22, E-4-[1-((2-fluoro-N-methyl-benzenesulfonylamino)methyl)cyclopropanecarboxamido]-adamantan-1-carboxylic acid amide] | levels of plasma glucose and plasma insulin (KKAy mice): significantly reduced |

| SMILES | IC50 (11β-HSD1) [nM] | other results |
| --- | --- | --- |
| NC(=O)C12CC3CC(C1)C(NC(=O)c1cccc([N-]S(=O)(=O)c4cccc(Cl)c4F)c1)C(C3)C2.[Na+] (centres unmarked) [Example 113, E-sodium[3-((5-carbamoyladamantan-2-yl)carbamoyl)phenyl]-2-fluoro-3-chloro-benzenesulfonylamide] | 2.7 | levels of plasma glucose and plasma insulin (KKAy mice): significantly reduced; Plasma glucose lowering effect (KKAy mice; 100 mg/kg): 28%; Plasma insulin lowering effect (KKAy mice; 100 mg/kg): 60% |
| CC(C)(NS(=O)(=O)c1ccccc1F)C(=O)NC1C2CC3CC1CC(C(N)=O)(C3)C2 (centres unmarked) [Example 71, E-4-[2-(2-fluoro-benzenesulfonylamino)-2-methylpropanamido]-adamantan-1-carboxylic acid amide] | 0.6 | levels of plasma glucose and plasma insulin (KKAy mice): significantly reduced; Plasma glucose lowering effect (KKAy mice; 100 mg/kg): 27%; Plasma insulin lowering effect (KKAy mice; 100 mg/kg): 40% |
